Results from a melting point compilation (Tetko et al.; mined from patent text by program, amines drawn as free bases though some values may be those of a salt).

melting point [°C]	Structure (SMILES)
206 to 207	C=C[C@H]1CC(C(=O)O)=C[C@@H](OC(C)C)[C@@H]1NC(C)=O
94 to 101	CN(Cc1cc2c(=O)c(C(=O)NCc3ccc(Cl)cc3)cn(C)c2o1)CC(O)c1ccco1 (stereo not drawn)
98 to 99	CCNC(=O)c1cc(Cl)ccc1Br
225 to 227	CCn1ncc(C(=O)c2ccc(S(C)(=O)=O)c(C)c2Cl)c1O
83 to 84	C#CC1(OC(=O)NCCCC)CCN(CCC=C(c2ccc(F)cc2)c2ccc(F)cc2)CC1
120 to 123	CCc1nc2c(cnn2CC)c(NC2CCOCC2)c1CN(Cc1ccc(OC)c(-c2cccc(CN3CCN(C)CC3)c2)c1)C(=O)c1cccc(C(N)=O)c1
133 to 134	CC(=O)NC(C)(C)c1ccc(CN2CCN(c3cccc(F)n3)CC2)cc1
85 to 86	CCOC(=O)CN(CCOc1cc2cc3ncc(C#N)c(Nc4cc(OC)c(Cl)cc4C)c3cc2cc1OCC)CC(=O)OCC
278 to 280	CCOC(=O)c1cc2cc(C3=C(c4cnc5[nH]cc(C(=O)C(C)(C)C)c5n4)CCC3)ccc2[nH]1
231 to 233	CC(C)(O)Cn1c(CCC2(C)OCCO2)nc2c(N)nc3ccccc3c21
171 to 172	c1ccc(OCC2CN(Cc3nc4ccccc4[nH]3)CCO2)cc1 (racemic)
334 to 336	O=C1Cc2ccc(-c3cnc4[nH]c(=O)n(CC5CCCCC5)c4n3)cc2N1
> 300	O=C(O)c1cn(-c2ccc(F)cc2)c2c(F)c(N3Cc4ccc(Br)cc4C3)c(F)cc2c1=O
85 to 87	CC(C)(C)COC(=O)COc1ccc(C(=O)CBr)cc1
225 to 227	CC(=O)N1CCC(CC(=O)c2ccc(Nc3ncnc4c3CCC4)cc2)CC1
223 to 224	COc1ccccc1-n1c(=O)[nH]c2c(C(N)=O)nc(Nc3ccc(O)cc3)nc21
150 to 158	CN1C(C)(C)CC(OC(=O)CCc2cc(-n3nc4ccc(Cl)cc4n3)c(O)c(C(C)(C)C)c2)CC1(C)C
91 to 92	Cc1cccc(-c2ccc3c(c2)c(CC(=O)O)cn3Cc2ccc(C(C)(C)C)cc2)c1
148 to 150	CC(=O)O[C@H]1C[C@@H](N=O)C(Cl)O[C@@H]1COS(=O)(=O)c1ccc(C)cc1 (stereo partly drawn)
191 to 193	O=C(Nc1ccc(Cl)nc1)C1=NN(c2ccc(Cl)cc2)C(c2ccc(F)cc2)C1 (stereo not drawn)

melting point [°C]	Structure (SMILES)
113 to 114	COC(=O)C1C=CCN2C(=O)C(CCOC3CCCCO3)(Cc3ccccc3)C(=O)N12 (stereo not drawn)
166 to 167	N#Cc1cccc(NC(=O)CN2CCN(c3ncccc3C#N)CC2)c1
196 to 197	Cc1cc2ncnn2nc1OCC(CS(N)(=O)=O)C(C)C (stereo not drawn)
260	CN(C)C(=O)N[C@H]1CC[C@H](CCN2CCN(c3nccc4c3CCO4)CC2)CC1
205 to 207	CCOC(=O)c1cnc(Nc2ccccc2OC(C)C)[nH]c1=O
247 to 249	O=C(Nc1ccccc1C(=O)O)C(=Cc1ccccc1)C(=O)Nc1ccccc1C(=O)O
68 to 70	CN(C)C(C)(CO)c1cccs1 (stereo not drawn)
93 to 96	COC(=O)c1ccc(C(=O)C(=O)c2ccc3c(c2)C(C)(C)CCC3(C)C)cc1
166 to 167	O=C(C=Cc1cccc(-c2ccc(F)cc2)c1)Nc1ccc(CN2CCCCC2)cc1
165 to 167	CC(C)c1ccc(C(=O)C23CC4CC(CC(C4)C2)C3)c(C(C)C)c1OS(N)(=O)=O
156 to 162	COC(=O)c1ccc2c(c1)ncn2Cc1ccccc1
173 to 174	CCN(CC)c1nc(C)nc(SC)c1NC(=O)CBr
112 to 113	CC(C)(C)OC(=O)CN1CCN(CC(=O)O)C1=O
79.1 to 80.3	CC(C)(C)OC(=O)NCCc1cccc(C#N)n1
240	O=C(O)C(=O)Nc1c(-c2ccccc2)c(=O)[nH]c2cc(Cl)ccc12
84	Cc1ccc(S(=O)(=O)N2[C@@H](CC(=N)NO)CC[C@H]2c2ccc(F)cc2)cc1 (racemic)
227 to 228	COc1ccc(-c2ccc(N3C[C@H](CNC(C)=O)OC3=O)cc2F)ccc1=O
165 to 166	CCCC[C@]1(CC)CS(=O)(=O)c2cc(O)c(OC)cc2[C@@H](c2ccccc2)N1
102 to 104	CCCCc1ccc2c(c1)Cc1cc(C(C)=O)ccc1-2

The next lines start with the molecule.

Structure (SMILES)	melting point [°C]
N#Cc1[nH]c2ccc(Cl)cc2c1-c1ccccc1F	185 to 186
CCCCOc1cc(-c2cc3ccccc3[nH]2)ccc1OCC	139
Clc1nc(Cl)c2c(n1)CCCS2	110
C#CCN(Cc1ccc2nc[nH]c(=O)c2c1)c1ccc(C(=O)NCc2cccc([N+](=O)[O-])c2)cc1	93 to 96
CCc1cnc(CSc2cnc(N)s2)o1	119 to 120
CNc1cc(Oc2ccc3c(C(=O)Nc4cccc(C(F)(F)F)c4)cncc3c2)ncn1	205 to 208
Clc1ccc(C=Cc2nc(CNc3ccc(CCCCn4ccnn4)cc3)co2)cc1Cl	76.8 to 78.8
CCCCCCCCCCCCOCC(C=CC(=O)N(C)C)(C=CC(=O)N(C)C)COCCCCCCCCCCCC	52 to 54
CC(=O)Nc1cc([C@H](O)CN[C@H](C)Cc2ccc(O)cc2)ccc1O	97 to 100
CSc1nc(Cl)c(-c2ccccc2)c(NN)n1	134 to 135
O=c1oc2ccc(-c3ccc(F)cc3F)cc2c(=O)n1-c1ccc(Cl)cc1F	176 to 177
O=C1N(c2ccccc2)N=C(Nc2ccccc2)C1(Br)Br	190
O=C1c2ccccc2C(=O)N1CC1CCc2cccnc2O1 (stereo not drawn)	152 to 158
O=c1c(-c2ccccc2)c(Cn2cnc3c(Cl)ncnc32)oc2ccc(Br)cc12	234 to 236
CN1Cc2c(C#C[Si](C)(C)C)ncn2-c2cccc(Cl)c2C1=O	186 to 187
CCN1C(=O)C(C)(C)C(=O)N(C)c2cc(CN(CCn3ccc4sccc4c3=O)Cc3cc(C)nn3C)ccc21	144 to 146
Cc1cc(-c2cc(C(F)(F)F)n3cnc(-c4ccncc4)c3n2)ccc1C(F)(F)F	225
CCCCCC(=O)C=P(c1ccccc1)(c1ccccc1)c1ccccc1	54 to 56
O=C(NCc1ccc(Cl)cc1)c1cn(N2CCCCC2)c2ccc(CN3CCOCC3)cc2c1=O	161 to 164
O=c1c2cccc3ncc(c(=O)n1CCCNS(=O)(=O)C(F)(F)F)n32	124 to 125
CCCC1=C(C)C(=O)c2c(oc(Cc3ccc(OC)cc3)c2C)C1=O	60 to 61
CCc1c(C(F)(F)F)nn(-c2ccc(S(N)(=O)=O)cc2)c1-c1ccc(OC)c(C)c1	135 to 136
Fc1cc(Cl)ccc1-c1ncnc(C(F)F)c1Cl	76 to 77
Cc1cccc2c1nc(-c1c(F)cccc1F)n2Cc1c(F)cccc1F	182 to 186
CCOC(=O)c1c(C)cc2nc(COC(=O)NCCO)n(-c3ccccc3S(=O)(=O)NC)c(=O)c2c1C	122 to 125
Fc1ccc2nc(S)oc2c1F	209 to 210
CC1(C)C=C(c2ccccn2)c2cc(F)c(F)cc2OC1	86
Cn1c(-c2cc(O)c3c(c2)C(=O)c2cccc(O)c2C3=O)nc2ccccc21	266 to 267
CCCCCCCCc1c(N)nc(-n2cncn2)nc1CC	90 to 91
